Laboratory results taken from patent US20240238281A1, “PIPERAZINE DERIVATIVES AND APPLICATION THEREOF” (priority 2021, published 2024).
Where a name gives a salt, the structure may show the parent alone. Read-outs that look alike come from different tables or passages of the source.

How the values were obtained:
Assay type in all cases: cell-based
MC5R = target: T1, MC5R (Homo sapiens, UniProt P33032); assay: In vitro activity of MCR receptors, intracellular cAMP signal (HEK293T/MCR cell line), MC5R
T1 construct: expressed in transfected cells
T1 sequence (P33032 whole entry): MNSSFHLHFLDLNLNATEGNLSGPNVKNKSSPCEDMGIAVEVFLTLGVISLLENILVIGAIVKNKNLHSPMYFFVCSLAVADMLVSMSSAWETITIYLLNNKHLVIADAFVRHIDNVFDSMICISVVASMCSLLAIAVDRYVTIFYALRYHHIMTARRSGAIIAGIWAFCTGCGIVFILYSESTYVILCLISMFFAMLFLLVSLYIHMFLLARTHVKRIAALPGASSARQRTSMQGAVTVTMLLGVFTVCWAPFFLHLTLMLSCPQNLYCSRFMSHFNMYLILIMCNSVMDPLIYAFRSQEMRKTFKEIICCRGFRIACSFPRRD
Experimental: (§1) Test purpose: to evaluate the agonistic effect of the compound on MCRs by detecting intracellular cAMP signal changes.
(§2) Cells were resuspended with 1×PBS+500 μM IBMX. 10 μL of the cell suspension was added into a 384-well plate to be tested, and the cell concentration was adjusted to 1×10^4 cells per well for later use. A pre-prepared solution of the compound to be tested was added, and dimethyl sulfoxide of the same volume was added to blank control wells. The test plate was centrifuged at 300 rpm for 1 minute, incubated at 37° C. for 30 minutes, and added with 5 μL of cAMP-d2 and 5 μL of a CAMP-cry antibody detection reagent. The test plate was centrifuged at 300 rpm for 1 minute, and incubated at room temperature for 60 minutes. The test plate was placed in the Envision multifunctional microplate reader for reading, with a detection wavelength of 665/615 nm.

MC4R = target: T2, MC4R (Homo sapiens, UniProt P32245); assay: In vitro activity of MCR receptors, intracellular cAMP signal (HEK293T/MCR cell line), MC4R
T2 construct: expressed in transfected cells
T2 sequence (P32245 whole entry): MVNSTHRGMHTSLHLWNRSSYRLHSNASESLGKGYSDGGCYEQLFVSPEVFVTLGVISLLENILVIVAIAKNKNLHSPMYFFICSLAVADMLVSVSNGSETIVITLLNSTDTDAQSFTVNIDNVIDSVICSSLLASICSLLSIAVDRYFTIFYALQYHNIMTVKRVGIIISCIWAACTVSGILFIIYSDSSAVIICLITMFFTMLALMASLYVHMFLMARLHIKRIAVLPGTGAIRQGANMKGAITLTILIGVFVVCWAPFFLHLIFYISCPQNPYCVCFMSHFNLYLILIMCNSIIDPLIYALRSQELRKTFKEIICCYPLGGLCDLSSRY
Experimental: as §1, §2

MC1R = target: T3, MC1R (Homo sapiens, UniProt Q01726); assay: In vitro activity of MCR receptors, intracellular cAMP signal (HEK293T/MCR cell line), MC1R
T3 construct: expressed in transfected cells
T3 sequence (Q01726 whole entry): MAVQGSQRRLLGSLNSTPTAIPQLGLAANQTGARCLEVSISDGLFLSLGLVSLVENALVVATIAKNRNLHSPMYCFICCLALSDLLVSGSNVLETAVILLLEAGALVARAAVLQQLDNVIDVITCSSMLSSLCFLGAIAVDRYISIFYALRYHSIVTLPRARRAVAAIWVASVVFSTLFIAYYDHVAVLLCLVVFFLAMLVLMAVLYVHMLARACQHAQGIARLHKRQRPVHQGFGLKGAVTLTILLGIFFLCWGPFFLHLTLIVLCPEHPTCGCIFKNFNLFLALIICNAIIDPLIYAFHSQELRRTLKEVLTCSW
Experimental: as §1
as §2, with “minutes.” for “minutes. The test plate was placed in the Envision multifunctional microplate reader for reading, with a detection wavelength of 665/615 nm.”

MC3R = target: T4, MC3R (Homo sapiens, UniProt P41968); assay: In vitro activity of MCR receptors, intracellular cAMP signal (HEK293T/MCR cell line), MC3R
T4 construct: expressed in transfected cells
T4 sequence (P41968 whole entry): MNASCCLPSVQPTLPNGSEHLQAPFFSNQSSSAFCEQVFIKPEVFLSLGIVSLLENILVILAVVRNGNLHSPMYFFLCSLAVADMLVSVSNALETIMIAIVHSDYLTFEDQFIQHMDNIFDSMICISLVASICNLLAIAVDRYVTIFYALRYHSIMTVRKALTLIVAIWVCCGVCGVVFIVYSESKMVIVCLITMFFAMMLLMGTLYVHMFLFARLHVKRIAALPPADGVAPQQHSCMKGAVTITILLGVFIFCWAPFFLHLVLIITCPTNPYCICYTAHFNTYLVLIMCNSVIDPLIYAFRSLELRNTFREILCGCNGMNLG
Experimental: as §1
as §2, with “minutes.” for “minutes. The test plate was placed in the Envision multifunctional microplate reader for reading, with a detection wavelength of 665/615 nm.”

[1] = cAMP, HEK293T/MCR cell line, read-out: MC5R EC50
[2] = cAMP, HEK293T/MCR cell line, read-out: MC4R EC50
[3] = cAMP, HEK293T/MCR cell line, read-out: MC1R EC50
[4] = cAMP, HEK293T/MCR cell line, read-out: MC3R EC50

Structure (SMILES) | EC50 (MC5R; [1]) [nM] | EC50 (MC4R; [2]) [nM] | EC50 (MC1R; [3]) [nM] | EC50 (MC3R) [nM] | EC50 (MC5R) [nM] | EC50 (MC4R) [nM] | EC50 (MC1R) [nM] | EC50 (MC3R; [4]) [nM]
C[C@@H]1CN(C(=O)C2CN(C3CCOC3)CC2c2ccc(F)cc2F)C[C@H](C)N1c1ccc(F)cc1 (single isomer, unassigned) [Compound 20a] | > 10000 | 26 | 2010 | 3130 |  |  |  | 
C[C@@H]1CN(C(=O)C2CN([C@H]3CCO[C@@H](C)C3)C[C@H]2c2ccc(F)cc2F)C[C@H](C)N1c1ccc(F)cc1 (stereo partly drawn) [Compound 22d] | > 10000 | 1.9 | 106 | 696 |  |  |  | 
C[C@@H]1CN(C(=O)C2CN(c3ccc(C#N)cn3)CC2c2ccc(F)cc2F)C[C@H](C)N1c1ccc(F)cc1 (single isomer, unassigned) [Compound 12] |  |  |  |  | 740 | 0.2 | 234 | 5
C[C@@H]1CN(C(=O)[C@@H]2CN(C3CCOCC3)C[C@H]2c2ccc(F)cc2F)C[C@H](C)N1c1ccc(Cl)cc1 [Compound 15] | > 10000 | 3 |  | 574 |  |  | 580 | 
C[C@@H]1CN(C(=O)C2CN(C3CCOCC3)CC2c2ccc(Cl)cc2)C[C@H](C)N1c1ccc(F)cc1 (single isomer, unassigned) [Compound 16] |  |  |  |  | 1170 | 6 | 167 | 254
C[C@@H]1CN(C(=O)C2CN(C3CCOC(C)(C)C3)CC2c2ccc(F)cc2F)C[C@H](C)N1c1ccc(F)cc1 (single isomer, unassigned) [Compound 21b] | > 10000 | 5.3 | 492 | 268 |  |  |  | 
C[C@@H]1CN(C(=O)C2CN(c3ccccc3)CC2c2ccc(F)cc2F)C[C@H](C)N1c1ccc(F)cc1 (single isomer, unassigned) [Compound 13] |  |  |  |  | > 10000 | 50 | > 10000 | 3300
C[C@@H]1CN(C(=O)[C@@H]2CN(C3CCCCC3)C[C@H]2c2ccc(F)cc2F)C[C@H](C)N1c1ccc(F)cc1 [Compound 18] | 1370 | 4 | 29 | 201 |  |  |  | 
C[C@@H]1CN(C(=O)C2CN(C(C)(C)C)CC2c2ccc(F)cc2F)C[C@H](C)N1c1ccc(C(F)(F)F)cc1 (single isomer, unassigned) [Compound 5] |  |  |  |  | > 10000 | 35 | 882 | 3500
CC1CC(N2CC(C(=O)N3C[C@@H](C)N(c4ccc(F)cc4)[C@@H](C)C3)C(c3ccc(F)cc3F)C2)CCO1 (single isomer, unassigned) [Compound 22a] | > 10000 | 0.03 | 790 | 265 |  |  |  | 
C[C@@H]1CN(C(=O)[C@@H]2CN(C(C)(C)C)C[C@H]2c2ccc(F)cc2F)C[C@H](C)N1c1ccccn1 [Compound 1] |  |  |  |  | > 10000 | 148 | 2330 | > 10000
C[C@@H]1CN(C(=O)[C@@H]2CN(C3CCC3)C[C@H]2c2ccc(F)cc2F)C[C@H](C)N1c1ccc(F)cc1 [Compound 17] | 8150 | 6.7 | 55 | 1100 |  |  |  | 
C[C@@H]1CN(C(=O)[C@@H]2CN(C(C)(C)C)C[C@H]2c2ccc(F)cc2F)C[C@H](C)N1c1ccccc1 [Hydrochloride salt of compound 6] | 1150 | 24 | 80 | 2030 |  |  |  | 
CCC(C)(C)N1CC(C(=O)N2C[C@@H](C)N(c3ccc(F)cc3)[C@@H](C)C2)[C@H](c2ccc(F)cc2F)C1 (stereo partly drawn) [Compound 23] | 1950 | 4 | 58 | 316 |  |  |  | 
C[C@@H]1CN(C(=O)C2CN(C(C)(C)C)CC2c2ccc(Cl)cc2)C[C@H](C)N1c1ccc(F)cc1 (single isomer, unassigned) [Compound 9] |  |  |  |  | 402 | 16 | 45 | 1760
C[C@@H]1CN(C(=O)[C@@H]2CN(C3CCOCC3)C[C@H]2c2ccc(F)cc2F)C[C@H](C)N1c1ccc(F)c(F)c1 [Compound 14] | 919 | 10 | 575 | 672 |  |  |  | 
C[C@@H]1CN(C(=O)C2CN(C(C)(C)C)CC2c2ccc(F)cc2F)C[C@H](C)N1c1ccc(F)cc1 (single isomer, unassigned) [Compound 3] |  |  |  | 2400 | > 10000 | 30 | 300 | 
C[C@@H]1CN(C(=O)C2CN(c3cccnn3)CC2c2ccc(F)cc2F)C[C@H](C)N1c1ccc(F)cc1 (single isomer, unassigned) [Compound 11] |  |  |  |  | 2130 | 0.4 | 82 | 26
